# Experimental data taken from BindingDB's records for doi:10.3109/14756366.2012.680062 (Shandong University, 2013).
# Target: T1, Aminopeptidase N (Sus scrofa, UniProt P15145)
# T1 sequence (P15145 whole entry): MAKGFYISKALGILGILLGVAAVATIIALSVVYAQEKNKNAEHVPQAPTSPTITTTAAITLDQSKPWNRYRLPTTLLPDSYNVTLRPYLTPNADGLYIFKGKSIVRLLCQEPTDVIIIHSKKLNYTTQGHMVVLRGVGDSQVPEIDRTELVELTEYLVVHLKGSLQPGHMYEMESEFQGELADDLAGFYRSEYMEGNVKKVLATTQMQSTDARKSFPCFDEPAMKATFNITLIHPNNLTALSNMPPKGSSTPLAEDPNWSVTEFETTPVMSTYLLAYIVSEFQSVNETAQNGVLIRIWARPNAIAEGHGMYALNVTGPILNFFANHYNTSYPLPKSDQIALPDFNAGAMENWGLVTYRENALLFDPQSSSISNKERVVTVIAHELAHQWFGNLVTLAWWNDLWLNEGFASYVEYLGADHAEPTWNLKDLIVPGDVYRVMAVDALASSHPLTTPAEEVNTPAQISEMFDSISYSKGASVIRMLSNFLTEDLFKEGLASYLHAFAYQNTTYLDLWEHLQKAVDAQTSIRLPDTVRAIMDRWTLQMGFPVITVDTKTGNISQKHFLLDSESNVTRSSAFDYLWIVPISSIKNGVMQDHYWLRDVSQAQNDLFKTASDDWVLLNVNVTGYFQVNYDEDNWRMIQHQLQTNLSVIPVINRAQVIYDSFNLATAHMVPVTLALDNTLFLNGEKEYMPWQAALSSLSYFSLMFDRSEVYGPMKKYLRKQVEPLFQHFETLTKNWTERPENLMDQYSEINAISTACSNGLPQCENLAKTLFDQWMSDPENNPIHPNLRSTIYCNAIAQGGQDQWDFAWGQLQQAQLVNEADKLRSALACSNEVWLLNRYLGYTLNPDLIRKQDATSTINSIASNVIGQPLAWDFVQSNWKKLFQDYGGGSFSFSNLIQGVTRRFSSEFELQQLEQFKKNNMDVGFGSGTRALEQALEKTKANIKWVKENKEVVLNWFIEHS
# Test: In Vitro APN Inhibition Assay
# Details: pH 7.2
row,Structure (SMILES),IC50 [µM]
1,CC(C)C[C@H](NC(=O)[C@@H](O)CN)C(=O)N[C@@H](Cc1ccc(O)cc1)C(=O)O [L-isoserine-L-eucyl-L-tyrosinase (16m)],17.5
2,CC(C)C[C@H](NC(=O)[C@@H](O)CN)C(=O)N[C@H](C(=O)O)C(C)C [L-isoserine-L-leucyl-L-valine (16i)],5.16
3,NC[C@H](O)C(=O)N[C@@H](Cc1ccccc1)C(=O)N[C@@H](Cc1ccccc1)C(=O)O [L-isoserine-L-phenylalanine-L-phenylalanine (16n)],6.5
4,CC(C)C[C@H](NC(=O)[C@H](Cc1ccc(O)cc1)NC(=O)[C@@H](O)CN)C(=O)O [L-isoserine-L-tyrosinase-L-leucyl (16l)],2.51
5,CC(C)[C@H](NC(=O)[C@H](Cc1ccc(O)cc1)NC(=O)[C@@H](O)CN)C(=O)O [L-isoserine-L-tyrosinase-L-valine (16e)],11.5
6,CC(C)C[C@H](NC(=O)[C@@H](NC(=O)[C@@H](O)CN)C(C)C)C(=O)O [L-isoserine-L-valine-L-leucyl (16h)],6.5
7,CC(C)[C@H](NC(=O)[C@@H](NC(=O)[C@@H](O)CN)C(C)C)C(=O)O [L-isoserine-L-valine-L-valine (16f)],13.6

# Results, then the compound that gave them:
row,IC50 [µM],Structure (SMILES)
1,30.4,CCC(C)[C@H](NC(=O)[C@H](Cc1ccccc1)NC(=O)[C@@H](O)CN)C(=O)O (stereo partly drawn) [2-[2-(3-amino-2-hydroxypropanamido)-3-phenylpropanamido]-3-methylpentanoic acid (16a)]
2,94,CC(C)[C@H](NC(=O)[C@H](Cc1ccccc1)NC(=O)[C@@H](O)CN)C(=O)O [L-isoserine-L-phenylalanine-L-valine (16b)]
3,11.6,CC(C)C[C@H](NC(=O)[C@@H](NC(=O)[C@@H](O)CN)c1ccccc1)C(=O)O [L-isoserine-L-phenylglycine-L-leucyl (16k)]
4,5.8,NC[C@H](O)C(=O)N[C@H](C(=O)N[C@@H](Cc1ccccc1)C(=O)O)c1ccccc1 [L-isoserine-L-phenylglycine-L-phenylalanine (16g)]
5,51.5,CC(C)[C@H](NC(=O)[C@@H](NC(=O)[C@@H](O)CN)c1ccccc1)C(=O)O [L-isoserine-L-phenylglycine-L-valine (16c)]
6,30.2,CC(C)[C@H](NC(=O)[C@@H](O)CN)C(=O)N[C@@H](Cc1ccccc1)C(=O)O [L-isoserine-L-valine-L-phenylalanine (16d)]
